Source: patent US12037344B2, “NLRP3 modulators” (INNATE TUMOR IMMUNITY, INC., priority 2018, dated 2024)
Where two headings read alike, the source gives them in different places.

Tests used:
TLR8 = target: T1, TLR8 (Homo sapiens, UniProt Q9NR97); test: In vitro human TLR8 binding reporter assay (HEK-Blue, NF-kB/AP1-inducible SEAP); format: cell-based; conditions: read-out: TLR8 Agonist EC50
T1 construct: human HEK-Blue cells co-expressing a TLR7 or TLR8 gene
T1 sequence (Q9NR97 27-1041): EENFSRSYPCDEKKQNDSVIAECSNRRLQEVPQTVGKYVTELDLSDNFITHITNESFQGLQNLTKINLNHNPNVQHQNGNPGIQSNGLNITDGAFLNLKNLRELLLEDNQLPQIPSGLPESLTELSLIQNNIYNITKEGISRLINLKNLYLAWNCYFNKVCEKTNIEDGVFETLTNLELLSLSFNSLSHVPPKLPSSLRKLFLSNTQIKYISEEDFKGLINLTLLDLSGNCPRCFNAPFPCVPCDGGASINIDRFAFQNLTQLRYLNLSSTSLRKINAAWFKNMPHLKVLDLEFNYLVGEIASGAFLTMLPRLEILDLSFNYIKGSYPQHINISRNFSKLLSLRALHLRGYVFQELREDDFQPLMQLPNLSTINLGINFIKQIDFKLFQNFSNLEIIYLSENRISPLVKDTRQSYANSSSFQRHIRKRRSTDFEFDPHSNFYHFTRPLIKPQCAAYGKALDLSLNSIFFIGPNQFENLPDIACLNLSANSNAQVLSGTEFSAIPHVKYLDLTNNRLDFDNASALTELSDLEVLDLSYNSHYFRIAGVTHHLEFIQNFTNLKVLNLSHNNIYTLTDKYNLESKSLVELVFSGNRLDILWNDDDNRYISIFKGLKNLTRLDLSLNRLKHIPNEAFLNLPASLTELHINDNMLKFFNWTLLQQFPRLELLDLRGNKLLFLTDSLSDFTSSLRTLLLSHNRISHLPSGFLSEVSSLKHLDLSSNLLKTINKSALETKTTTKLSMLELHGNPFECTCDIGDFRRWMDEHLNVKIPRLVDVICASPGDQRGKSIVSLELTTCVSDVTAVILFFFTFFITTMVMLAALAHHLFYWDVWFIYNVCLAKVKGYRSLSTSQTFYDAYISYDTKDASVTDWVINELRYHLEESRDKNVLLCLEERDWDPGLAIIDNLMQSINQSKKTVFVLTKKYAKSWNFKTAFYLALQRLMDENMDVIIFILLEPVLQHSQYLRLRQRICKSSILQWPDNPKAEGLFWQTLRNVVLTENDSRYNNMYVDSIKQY
Method in brief: (§1)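 Cells are seeded and grown for 24 h. Compounds or DMSO are then added and incubated 18 h at 37 °C. Quanti-Blue is added, and SEAP is read after thirty minutes. EC50 values are normalized, with RLU from 50 μM reference standard setting 100% Ymax.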

THP-1 cells = test: Measurement of IL-1β production, hTRF protocol (second alternative procedure), THP-1 cells; format: cell-based, human; conditions: read-out: NLRP3 hILIB EC50
Method in brief: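 THP-1 cells differentiated overnight with 50 ng/ml PMA, then plated at 50,000 cells/well in RPMI with 2% FBS onto serial compound dilutions (top final concentration 10 μM) for 2 hours at 37° C. Supernatant IL-1β measured by hTRF (antibodies at 1:40, overnight at 4° C), read at 665/615 nm against a standard curve.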

TLR7 = target: T2, TLR7 (Homo sapiens, UniProt Q9NYK1); test: In vitro human TLR7 binding reporter assay (HEK-Blue, NF-kB/AP1-inducible SEAP); format: cell-based; conditions: read-out: TLR7 Agonist EC50
T2 construct: human HEK-Blue cells co-expressing a TLR7 or TLR8 gene
T2 sequence (Q9NYK1 27-1049): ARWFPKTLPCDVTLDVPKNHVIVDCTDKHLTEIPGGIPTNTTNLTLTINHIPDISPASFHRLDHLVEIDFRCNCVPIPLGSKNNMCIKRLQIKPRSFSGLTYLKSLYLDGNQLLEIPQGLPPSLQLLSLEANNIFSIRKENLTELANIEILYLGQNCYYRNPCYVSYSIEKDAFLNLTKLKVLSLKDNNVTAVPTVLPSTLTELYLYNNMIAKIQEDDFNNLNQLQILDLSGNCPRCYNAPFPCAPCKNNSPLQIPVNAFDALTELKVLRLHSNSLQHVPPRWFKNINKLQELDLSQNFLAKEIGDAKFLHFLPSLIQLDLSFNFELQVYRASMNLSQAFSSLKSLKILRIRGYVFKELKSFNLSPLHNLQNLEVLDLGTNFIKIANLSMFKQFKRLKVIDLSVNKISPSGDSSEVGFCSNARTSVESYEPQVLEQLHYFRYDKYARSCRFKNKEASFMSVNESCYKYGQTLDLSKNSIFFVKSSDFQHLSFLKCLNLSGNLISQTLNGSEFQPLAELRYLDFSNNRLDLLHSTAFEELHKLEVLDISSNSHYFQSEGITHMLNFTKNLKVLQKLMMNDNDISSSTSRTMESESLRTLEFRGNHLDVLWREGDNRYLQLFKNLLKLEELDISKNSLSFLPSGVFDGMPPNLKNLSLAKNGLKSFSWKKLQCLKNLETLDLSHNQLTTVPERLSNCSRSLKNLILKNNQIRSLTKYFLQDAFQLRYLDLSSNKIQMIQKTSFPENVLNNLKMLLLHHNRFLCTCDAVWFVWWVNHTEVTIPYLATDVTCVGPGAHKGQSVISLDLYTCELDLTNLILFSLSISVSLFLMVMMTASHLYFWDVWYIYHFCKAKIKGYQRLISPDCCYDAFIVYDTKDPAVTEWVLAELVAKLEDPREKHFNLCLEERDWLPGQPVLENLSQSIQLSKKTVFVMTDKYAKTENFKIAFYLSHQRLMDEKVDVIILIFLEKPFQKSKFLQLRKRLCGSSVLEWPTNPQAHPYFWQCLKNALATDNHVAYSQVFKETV
Method in brief: as §1

[1] = Homo sapiens, THP-1, IL-1β production, human cells
[2] = Homo sapiens, THP-1, IL-1β production, human

Row | SMILES | EC50 (TLR8; activity range) | EC50 (THP-1 cells; [1]) | EC50 (TLR7; activity range) | EC50 (TLR8; activity range class) | EC50 (THP-1 cells; [2]) | EC50 (TLR7; activity range class) | EC50 (THP-1 cells; IL-1β production, human)
1 | Nc1nc2cc(-c3cc[nH]n3)ccc2c2cn(CC(=O)N3CCOCC3)nc12 [Example 532] | > 100 µM | 0.34 µM | > 100 µM |  |  |  | 
2 | Cc1cc(C)n(CCn2cc3c(n2)c(N)nc2cc(-n4cccn4)ccc23)n1 [Example 12] |  |  |  | 20 to 100 µM | 1.52 µM | 20 to 100 µM | 
3 | Nc1nc2cc(-c3cc[nH]n3)ccc2c2cn(CCNC(=O)C3CCCCO3)nc12 (stereo not drawn) [Example 93] |  |  |  | > 100 µM | 0.63 µM | > 100 µM | 
4 | N#CCn1cc2c(n1)c(N)nc1cc(-c3cc[nH]n3)ccc12 [Example 551] | > 100 µM | 2.24 µM | > 100 µM |  |  |  | 
5 | Nc1nc2cc(-c3cc[nH]n3)ccc2c2cn(CCNC(=O)c3ccc(C(F)(F)F)cn3)nc12 [Example 62] |  |  |  | > 100 µM | 0.28 µM | 20 to 100 µM | 
6 | COCC(O)Cn1cc2c(N)nc3cc(-c4cc[nH]n4)ccc3c2n1 (stereo not drawn) [Example 307] |  |  |  | > 100 µM | 0.43 µM | > 100 µM | 
7 | C[C@H](Cn1cc2c(n1)c(N)nc1cc(-c3cc[nH]n3)ccc12)NS(C)(=O)=O [Example 530] | > 100 µM | 0.68 µM | > 100 µM |  |  |  | 
8 | Nc1nc2cc(-c3cc[nH]n3)ccc2c2c1cnn2C1CCOCC1 [Example 311] |  |  |  | > 100 µM | 0.71 µM | > 100 µM | 
9 | Nc1nc2cc(-c3cc[nH]n3)ccc2c2nn(CCNC(=O)c3ccccn3)cc12 [Example 150, N-{2-[4-amino-7-(1H-pyrazol-3-yl)-2H-pyrazolo[4,3-c]quinolin-2-yl]ethyl}pyridine-2-carboxamide] |  |  |  | > 100 µM | 0.07 µM | > 100 µM | 
10 | Nc1nc2cc(-c3cc[nH]n3)ccc2c2nn(C3CCOC3)cc12 (single isomer, unassigned) [Example 239] |  |  |  | > 100 µM |  | > 100 µM | 0.21 µM
11 | Nc1nc2cc(-c3cc[nH]n3)ccc2c2cn(CCNC(=O)c3cccc(Cl)c3)nc12 [Example 82] |  |  |  | 20 to 100 µM | 0.73 µM | > 100 µM | 
12 | CN(C)Cc1nc2c(N)nc3cc(-c4ccn[nH]4)ccc3c2s1 [Example 143, 2-[(dimethylamino)methyl]-7-(1H-pyrazol-5-yl)-[1,3]thiazolo[4,5-c]quinolin-4-amine] |  |  |  | > 100 µM | 0.4 µM | > 100 µM | 
13 | Nc1nc2cc(-c3ccn[nH]3)ccc2c2sc(CCNC(=O)C3CCO3)nc12 (stereo not drawn) [Example 137, N-[2-[4-amino-7-(1H-pyrazol-5-yl)-[1,3]thiazolo[4,5-c]quinolin-2-yl]ethyl]oxetane-2-carboxamide] |  |  |  | > 100 µM | 1.67 µM | > 100 µM | 
14 | Nc1nc2cc(-c3cc[nH]n3)ccc2c2nn(CC3CCOC3)cc12 (single isomer, unassigned) [Example 328] |  |  |  | > 100 µM |  | > 100 µM | 1.35 µM
15 | Nc1nc2cc(-n3cccn3)ccc2c2nn(C[C@@H](O)CO)cc12 [Example 389] |  |  |  | > 100 µM | 0.91 µM | > 100 µM | 
16 | Nc1nc2cc(-n3cccn3)ccc2c2nn(CC3COCCN3)cc12 (stereo not drawn) [Example 433] | > 100 µM | 4.58 µM | > 100 µM |  |  |  | 
17 | CC[C@@H](O)Cn1cc2c(N)nc3cc(-c4cc[nH]n4)ccc3c2n1 [Example 368] |  |  |  | > 100 µM | 0.52 µM | > 100 µM | 
18 | Nc1nc2cc(-c3cc[nH]n3)ccc2c2cn(CCNC(=O)c3ncccc3F)nc12 [Example 53] |  |  |  | > 100 µM | 0.45 µM | > 100 µM | 
19 | Nc1nc2cc(-c3cc[nH]n3)ccc2c2cn(CCNC(=O)c3cccc(Cl)n3)nc12 [Example 60] |  |  |  | > 100 µM | 0.27 µM | > 100 µM | 
20 | CC(C)(Cn1cc2c(N)nc3cc(-c4ccn[nH]4)ccc3c2n1)C(=O)NCc1ccccn1 [Example 611] | > 100 µM | 9.94 µM | > 100 µM |  |  |  | 
21 | CC(C)(C(=O)NCc1ccccn1)n1cc2c(N)nc3cc(-c4cc[nH]n4)ccc3c2n1 [Example 525] | > 100 µM | 20.2 µM | > 100 µM |  |  |  | 
22 | CC(C)(Cn1cc2c(N)nc3cc(-c4ccn[nH]4)ccc3c2n1)C(=O)NCc1cccnc1 [Example 601] | > 100 µM | 32.4 µM | > 100 µM |  |  |  | 
23 | CNC(=O)Cn1cc2c(N)nc3cc(-n4cccn4)ccc3c2n1 [Example 554] | > 100 µM | 0.46 µM | > 100 µM |  |  |  | 
24 | Nc1nc2cc(-c3cc[nH]n3)ccc2c2nn(CC3CC3(F)F)cc12 (stereo not drawn) [Example 386] |  |  |  | > 100 µM | 0.21 µM | > 100 µM | 
25 | CNC(=O)CCn1cc2c(N)nc3cc(-n4cccn4)ccc3c2n1 [Example 556] | > 100 µM | 1.82 µM | > 100 µM |  |  |  | 
26 | Nc1nc2cc(-c3cc[nH]n3)ccc2c2nn(CCNC(=O)c3cccnc3)cc12 [Example 204] |  |  |  | > 100 µM | 2.6 µM | > 100 µM | 
27 | Nc1nc2cc(-c3cc[nH]n3)ccc2c2cn(CCNC(=O)c3ncc(F)cc3F)nc12 [Example 66] |  |  |  | > 100 µM | 0.8 µM | > 100 µM | 
